Reference: patent publication US20160281050A1, “METHODS FOR TREATING A CULTURE OF HAEMATOCOCCUS PLUVIALIS FOR CONTAMINATION USING SALT AND HYDROGEN PEROXIDE” (HELIAE DEVELOPMENT LLC, priority 2015, published 2016)

System: Haematococcus pluvialis (Strain 2)
Experiment: % cell lysis, culture dry weight and % carotenoid by UV method in 230 L reactors, salt treatment (Example 12)
Format: cell-based
Procedure: This test was done side by side in flasks (0.1 L) and in reactors located in a greenhouse operating in conditions: reactor volume of 230 L; Daily PAR of 20 mol m^−2 d^−1; pH (not measured); and paddlewheel speed of 21 RPM. […] The flask cultures were mixed by shaking at 140 rpm and received 300-400 μmol/m^2 s of photosynthetically active radiation (PAR) in 12 hour light cycles and constant supply of 2.5% CO2. The motility of the culture was monitored by visual observation under a microscope. […] Nine 230 L reactors were also seeded with culture from bioreactor #2410 on the same day as the flasks and brought to 2 ppt concentration of salt. Once motility of the cells was reduced to <10% (day 3 of culture for flasks and day 2 for 230 L reactors) the level of salt was elevated to a point between 4-18 ppt and compared to the culture in two reactors remaining at 2 ppt salt. Flasks and 230 L reactors were monitored for percentage of cell lysis via visual observation under a microscope, culture dry weight (biomass accumulation in g/L), and percentage of chytrid infection via visual observation under a microscope. Carotenoid production, a proxy for determining astaxanthin, was quantified every other day of culture in the 230 L reactors using the UV method.

## [Cl-].[Na+] [NaCl, sodium chloride]
NaCl 2 ppt (1st 2 ppt column), time 12 d
  Culture Dry Weight in 230L reactors: 0.187 g/L
NaCl 2 ppt, time 0 d
  Culture Dry Weight in 230L reactors: 0.043 g/L
NaCl 2 ppt, time 1 d
  Culture Dry Weight in 230L reactors: 0.048 g/L
NaCl 2 ppt, time 2 d
  Culture Dry Weight in 230L reactors: 0.072 g/L
NaCl 2 ppt, time 4 d
  Culture Dry Weight in 230L reactors: 0.113 g/L
NaCl 2 ppt, time 5 d
  Culture Dry Weight in 230L reactors: 0.125 g/L
NaCl 2 ppt, time 6 d
  Culture Dry Weight in 230L reactors: 0.130 g/L
NaCl 2 ppt, time 7 d
  Culture Dry Weight in 230L reactors: 0.150 g/L
NaCl 2 ppt, time 8 d
  Culture Dry Weight in 230L reactors: 0.170 g/L
NaCl 2 ppt, time 9 d
  Culture Dry Weight in 230L reactors: 0.218 g/L
NaCl 2 ppt, time 10 d
  Culture Dry Weight in 230L reactors: 0.150 g/L
NaCl 4 ppt, time 0 d
  Culture Dry Weight in 230L reactors: 0.037 g/L
NaCl 4 ppt, time 1 d
  Culture Dry Weight in 230L reactors: 0.063 g/L
NaCl 4 ppt, time 2 d
  Culture Dry Weight in 230L reactors: 0.080 g/L
NaCl 4 ppt, time 4 d
  Culture Dry Weight in 230L reactors: 0.115 g/L
NaCl 4 ppt, time 5 d
  Culture Dry Weight in 230L reactors: 0.120 g/L
NaCl 4 ppt, time 6 d
  Culture Dry Weight in 230L reactors: 0.125 g/L
NaCl 4 ppt, time 7 d
  Culture Dry Weight in 230L reactors: 0.148 g/L
NaCl 4 ppt, time 8 d
  Culture Dry Weight in 230L reactors: 0.153 g/L
NaCl 4 ppt, time 9 d
  Culture Dry Weight in 230L reactors: 0.198 g/L
NaCl 4 ppt, time 10 d
  Culture Dry Weight in 230L reactors: 0.143 g/L
NaCl 4 ppt, time 11 d
  Culture Dry Weight in 230L reactors: 0.148 g/L
NaCl 4 ppt, time 12 d
  Culture Dry Weight in 230L reactors: 0.150 g/L
NaCl 5 ppt, time 0 d
  Culture Dry Weight in 230L reactors: 0.040 g/L
NaCl 5 ppt, time 1 d
  Culture Dry Weight in 230L reactors: 0.070 g/L
NaCl 5 ppt, time 4 d
  Culture Dry Weight in 230L reactors: 0.162 g/L
NaCl 5 ppt, time 5 d
  Culture Dry Weight in 230L reactors: 0.185 g/L
NaCl 5 ppt, time 6 d
  Culture Dry Weight in 230L reactors: 0.213 g/L
NaCl 5 ppt, time 7 d
  Culture Dry Weight in 230L reactors: 0.223 g/L
NaCl 5 ppt, time 8 d
  Culture Dry Weight in 230L reactors: 0.270 g/L
NaCl 5 ppt, time 9 d
  Culture Dry Weight in 230L reactors: 0.293 g/L
NaCl 5 ppt, time 10 d
  Culture Dry Weight in 230L reactors: 0.265 g/L
NaCl 5 ppt, time 11 d
  Culture Dry Weight in 230L reactors: 0.250 g/L
NaCl 5 ppt, time 12 d
  Culture Dry Weight in 230L reactors: 0.280 g/L
NaCl 6 ppt, time 0 d
  Culture Dry Weight in 230L reactors: 0.040 g/L
NaCl 6 ppt, time 1 d
  Culture Dry Weight in 230L reactors: 0.058 g/L
NaCl 6 ppt, time 4 d
  Culture Dry Weight in 230L reactors: 0.140 g/L
NaCl 6 ppt, time 5 d
  Culture Dry Weight in 230L reactors: 0.178 g/L
NaCl 6 ppt, time 6 d
  Culture Dry Weight in 230L reactors: 0.198 g/L
NaCl 6 ppt, time 7 d
  Culture Dry Weight in 230L reactors: 0.218 g/L
NaCl 6 ppt, time 8 d
  Culture Dry Weight in 230L reactors: 0.260 g/L
NaCl 6 ppt, time 9 d
  Culture Dry Weight in 230L reactors: 0.260 g/L
NaCl 6 ppt, time 10 d
  Culture Dry Weight in 230L reactors: 0.250 g/L
NaCl 6 ppt, time 11 d
  Culture Dry Weight in 230L reactors: 0.282 g/L
NaCl 6 ppt, time 12 d
  Culture Dry Weight in 230L reactors: 0.323 g/L
NaCl 7 ppt, time 0 d
  Culture Dry Weight in 230L reactors: 0.035 g/L
NaCl 7 ppt, time 1 d
  Culture Dry Weight in 230L reactors: 0.048 g/L
NaCl 7 ppt, time 4 d
  Culture Dry Weight in 230L reactors: 0.145 g/L
NaCl 7 ppt, time 5 d
  Culture Dry Weight in 230L reactors: 0.150 g/L
NaCl 7 ppt, time 6 d
  Culture Dry Weight in 230L reactors: 0.170 g/L
NaCl 7 ppt, time 7 d
  Culture Dry Weight in 230L reactors: 0.198 g/L
NaCl 7 ppt, time 8 d
  Culture Dry Weight in 230L reactors: 0.260 g/L
NaCl 7 ppt, time 9 d
  Culture Dry Weight in 230L reactors: 0.148 g/L
NaCl 7 ppt, time 10 d
  Culture Dry Weight in 230L reactors: 0.205 g/L
NaCl 7 ppt, time 11 d
  Culture Dry Weight in 230L reactors: 0.218 g/L
NaCl 7 ppt, time 12 d
  Culture Dry Weight in 230L reactors: 0.245 g/L
NaCl 8 ppt, time 0 d
  Culture Dry Weight in 230L reactors: 0.018 g/L
NaCl 8 ppt, time 1 d
  Culture Dry Weight in 230L reactors: 0.057 g/L
NaCl 8 ppt, time 4 d
  Culture Dry Weight in 230L reactors: 0.145 g/L
NaCl 8 ppt, time 5 d
  Culture Dry Weight in 230L reactors: 0.168 g/L
NaCl 8 ppt, time 6 d
  Culture Dry Weight in 230L reactors: 0.193 g/L
NaCl 8 ppt, time 7 d
  Culture Dry Weight in 230L reactors: 0.205 g/L
NaCl 8 ppt, time 8 d
  Culture Dry Weight in 230L reactors: 0.237 g/L
NaCl 8 ppt, time 9 d
  Culture Dry Weight in 230L reactors: 0.218 g/L
NaCl 8 ppt, time 10 d
  Culture Dry Weight in 230L reactors: 0.257 g/L
NaCl 8 ppt, time 11 d
  Culture Dry Weight in 230L reactors: 0.220 g/L
NaCl 8 ppt, time 12 d
  Culture Dry Weight in 230L reactors: 0.263 g/L
NaCl 10 ppt, time 0 d
  Culture Dry Weight in 230L reactors: 0.045 g/L
NaCl 10 ppt, time 1 d
  Culture Dry Weight in 230L reactors: 0.060 g/L
NaCl 10 ppt, time 4 d
  Culture Dry Weight in 230L reactors: 0.120 g/L
NaCl 10 ppt, time 5 d
  Culture Dry Weight in 230L reactors: 0.130 g/L
NaCl 10 ppt, time 6 d
  Culture Dry Weight in 230L reactors: 0.168 g/L
NaCl 10 ppt, time 7 d
  Culture Dry Weight in 230L reactors: 0.145 g/L
NaCl 10 ppt, time 8 d
  Culture Dry Weight in 230L reactors: 0.145 g/L
NaCl 10 ppt, time 9 d
  Culture Dry Weight in 230L reactors: 0.160 g/L
NaCl 10 ppt, time 10 d
  Culture Dry Weight in 230L reactors: 0.173 g/L
NaCl 10 ppt, time 11 d
  Culture Dry Weight in 230L reactors: 0.145 g/L
NaCl 10 ppt, time 12 d
  Culture Dry Weight in 230L reactors: 0.168 g/L
NaCl 18 ppt, time 0 d
  Culture Dry Weight in 230L reactors: 0.035 g/L
NaCl 18 ppt, time 1 d
  Culture Dry Weight in 230L reactors: 0.052 g/L
NaCl 18 ppt, time 4 d
  Culture Dry Weight in 230L reactors: 0.135 g/L
NaCl 18 ppt, time 5 d
  Culture Dry Weight in 230L reactors: 0.173 g/L
NaCl 18 ppt, time 6 d
  Culture Dry Weight in 230L reactors: 0.180 g/L
NaCl 18 ppt, time 7 d
  Culture Dry Weight in 230L reactors: 0.165 g/L
NaCl 18 ppt, time 8 d
  Culture Dry Weight in 230L reactors: 0.165 g/L
NaCl 18 ppt, time 9 d
  Culture Dry Weight in 230L reactors: 0.175 g/L
NaCl 18 ppt, time 10 d
  Culture Dry Weight in 230L reactors: 0.183 g/L
NaCl 18 ppt, time 11 d
  Culture Dry Weight in 230L reactors: 0.200 g/L
NaCl 18 ppt, time 12 d
  Culture Dry Weight in 230L reactors: 0.175 g/L
